Results on 20 compounds are retold here after ChEMBL document CHEMBL4818994, “Uncompetitive nanomolar dimeric indenoindole inhibitors of the human breast cancer resistance pump ABCG2” (Eur J Med Chem, 2021).

For series [1], the target named is T1, Broad substrate specificity ATP-binding cassette transporter ABCG2 (Homo sapiens, UniProt Q9UNQ0).
T1 sequence (Q9UNQ0 whole entry): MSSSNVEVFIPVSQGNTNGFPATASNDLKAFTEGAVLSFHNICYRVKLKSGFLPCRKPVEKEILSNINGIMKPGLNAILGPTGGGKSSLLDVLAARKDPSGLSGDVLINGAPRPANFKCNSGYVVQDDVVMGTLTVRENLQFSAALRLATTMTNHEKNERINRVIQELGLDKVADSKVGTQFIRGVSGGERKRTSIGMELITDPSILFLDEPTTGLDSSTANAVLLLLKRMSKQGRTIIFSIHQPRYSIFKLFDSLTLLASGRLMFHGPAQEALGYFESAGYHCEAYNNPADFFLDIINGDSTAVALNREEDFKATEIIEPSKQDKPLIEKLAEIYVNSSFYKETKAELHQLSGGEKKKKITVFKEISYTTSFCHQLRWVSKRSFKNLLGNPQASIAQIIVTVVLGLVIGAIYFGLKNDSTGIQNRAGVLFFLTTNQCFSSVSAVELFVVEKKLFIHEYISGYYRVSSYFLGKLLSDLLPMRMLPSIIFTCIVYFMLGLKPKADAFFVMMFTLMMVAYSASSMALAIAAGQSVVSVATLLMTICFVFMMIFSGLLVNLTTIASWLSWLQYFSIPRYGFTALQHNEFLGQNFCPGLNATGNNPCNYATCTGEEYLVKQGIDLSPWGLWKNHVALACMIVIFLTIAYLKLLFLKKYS
The experiment in a line: Mixed inhibition of human ABCG2 transfected in human HEK293 cells assessed as Ki2 for inhibition of Hoechst33342 efflux measured after 30 mins by FACS Calibur cytometric analysis. The class given is cell-based. (In general: A flow cytometer gives signals particle by particle.)

Series [2] addresses T1, Broad substrate specificity ATP-binding cassette transporter ABCG2. The experiment in a line: Inhibition of human ABCG2 transfected in human HEK293 cells assessed as inhibition of mitoxantrone efflux measured after 30 mins by FACS Calibur cytometric analysis. The class given is cell-based.
Series [3] can be described thus: Growth inhibition of human HEK293 cells after 72 hrs by MTT assay. The series is classed as cell-based. As to conditions: read-out: IG50. A general note: Formazan colour is commonly taken as a measure of viable cells; call rule not given here.
Series [4] can be described thus: Growth inhibition of human HEK293 cells overexpressing human ABCG2 after 72 hrs by MTT assay. Conditions: read-out: IG50. The series is classed as ADME, cell-based.
Series [5] deals with ABCG2. Nature of the series: Therapeutic ratio of IG50 for growth inhibition of human HEK293 cells overexpressing human ABCG2 to IC50 for inhibition of human ABCG2 expressed in human HEK293 cells. The class given is toxicity, cell-based.
Series [6] deals with T1, Broad substrate specificity ATP-binding cassette transporter ABCG2. The experiment in a line: Uncompetitive inhibition of human ABCG2 transfected in human HEK293 cells assessed as Ki2 for inhibition of mitoxantrone efflux measured after 30 mins by FACS Calibur cytometric analysis. The series is classed as cell-based.
Series [7] shares this target. The experiment in a line: Mixed inhibition of human ABCG2 transfected in human HEK293 cells assessed as Ki1 for inhibition of Hoechst33342 efflux measured after 30 mins by FACS Calibur cytometric analysis. The series is classed as cell-based.
For series [8], the system named is ABCG2. The experiment in a line: Therapeutic ratio of IG50 for growth inhibition of human HEK293 cells to IC50 for inhibition of human ABCG2 expressed in human HEK293 cells. The series is classed as toxicity, cell-based.
Series [9] has as its target Multidrug resistance-associated protein 1 (Homo sapiens, UniProt P33527). Nature of the series: Inhibition of human MRP1 transfected in human HEK293 cells assessed as inhibition of Calcein-AM efflux measured after 30 mins by FACS Calibur cytometric analysis. The class given is cell-based. Conditions: hek293, 0.5 h.
Series [10] addresses T2, ATP-dependent translocase ABCB1 (Homo sapiens, UniProt P08183). The experiment in a line: Inhibition of human P-gp1 transfected in mouse NIH3T3 cells assessed as inhibition of Calcein-AM efflux measured after 30 mins by FACS Calibur cytometric analysis. The series is classed as cell-based. Conditions: nih3t3, 0.5 h.
The target in series [11] is T1, Broad substrate specificity ATP-binding cassette transporter ABCG2. The experiment in a line: Mixed inhibition of human ABCG2 transfected in human HEK293 cells assessed as Ki1 for inhibition of mitoxantrone efflux measured after 30 mins by FACS Calibur cytometric analysis. The class given is cell-based.
For series [12] the target is unchanged. Nature of the series: Mixed inhibition of human ABCG2 transfected in human HEK293 cells assessed as Ki2 for inhibition of mitoxantrone efflux measured after 30 mins by FACS Calibur cytometric analysis. The series is classed as cell-based.
Series [13] deals with T2, ATP-dependent translocase ABCB1. Nature of the series: Inhibition of human P-gp1 transfected in mouse NIH3T3 cells assessed as inhibition of Rhodamine123 efflux measured after 30 mins by FACS Calibur cytometric analysis. The series is classed as cell-based. As to conditions: nih3t3, 0.5 h.
For series [14], the target named is T1, Broad substrate specificity ATP-binding cassette transporter ABCG2. The experiment in a line: Non-competitive inhibition of human ABCG2 transfected in human HEK293 cells assessed as Ki2 for inhibition of mitoxantrone efflux measured after 30 mins by FACS Calibur cytometric analysis. The class given is cell-based.

Usually Ki stands for the dissociation constant of the complex between target and ligand, obtained from inhibition or displacement. For orientation: IC50 means the concentration at which inhibition is half-maximal.

Each structure is given as a SMILES string.

Sequence of Multidrug resistance-associated protein 1 (P33527 whole entry): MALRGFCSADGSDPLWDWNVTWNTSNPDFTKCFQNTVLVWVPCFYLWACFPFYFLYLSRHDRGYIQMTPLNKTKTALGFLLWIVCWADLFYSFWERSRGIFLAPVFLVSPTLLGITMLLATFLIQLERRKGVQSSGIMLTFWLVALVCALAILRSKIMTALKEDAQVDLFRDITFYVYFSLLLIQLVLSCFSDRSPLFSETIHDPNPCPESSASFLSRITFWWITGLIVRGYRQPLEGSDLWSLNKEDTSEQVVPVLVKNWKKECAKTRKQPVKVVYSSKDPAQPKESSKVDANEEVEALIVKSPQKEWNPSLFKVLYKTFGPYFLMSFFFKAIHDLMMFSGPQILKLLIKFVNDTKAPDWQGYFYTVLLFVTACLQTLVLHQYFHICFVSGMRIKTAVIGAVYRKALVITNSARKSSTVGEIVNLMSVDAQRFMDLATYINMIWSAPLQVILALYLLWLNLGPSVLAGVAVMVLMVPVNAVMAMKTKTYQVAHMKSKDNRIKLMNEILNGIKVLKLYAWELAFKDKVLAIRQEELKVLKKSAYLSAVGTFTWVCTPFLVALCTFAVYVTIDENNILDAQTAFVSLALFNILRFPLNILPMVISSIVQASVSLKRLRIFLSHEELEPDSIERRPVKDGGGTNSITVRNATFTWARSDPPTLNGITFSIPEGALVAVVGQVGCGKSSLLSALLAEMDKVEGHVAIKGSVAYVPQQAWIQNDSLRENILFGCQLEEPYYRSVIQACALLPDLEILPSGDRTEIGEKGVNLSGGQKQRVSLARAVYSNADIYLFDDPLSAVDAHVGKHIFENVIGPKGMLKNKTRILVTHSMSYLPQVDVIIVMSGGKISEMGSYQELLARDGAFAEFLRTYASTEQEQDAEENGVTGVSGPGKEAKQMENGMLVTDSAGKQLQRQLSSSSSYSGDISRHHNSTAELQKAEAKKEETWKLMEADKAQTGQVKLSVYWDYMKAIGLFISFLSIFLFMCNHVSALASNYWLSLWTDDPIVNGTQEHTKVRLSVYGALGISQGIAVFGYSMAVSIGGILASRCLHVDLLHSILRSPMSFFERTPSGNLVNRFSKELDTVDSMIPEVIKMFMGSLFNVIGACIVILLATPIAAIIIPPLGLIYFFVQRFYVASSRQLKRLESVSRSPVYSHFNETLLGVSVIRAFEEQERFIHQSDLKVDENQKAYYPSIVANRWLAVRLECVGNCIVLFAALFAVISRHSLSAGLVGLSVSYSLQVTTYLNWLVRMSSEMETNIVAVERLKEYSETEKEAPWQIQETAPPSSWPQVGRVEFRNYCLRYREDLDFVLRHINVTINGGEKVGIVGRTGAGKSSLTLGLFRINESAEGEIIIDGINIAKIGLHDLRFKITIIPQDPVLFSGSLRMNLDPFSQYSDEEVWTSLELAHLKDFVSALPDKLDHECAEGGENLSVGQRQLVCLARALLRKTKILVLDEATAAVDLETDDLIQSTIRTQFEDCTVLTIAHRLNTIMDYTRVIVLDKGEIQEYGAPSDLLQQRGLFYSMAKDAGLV
T2 sequence (P08183 whole entry): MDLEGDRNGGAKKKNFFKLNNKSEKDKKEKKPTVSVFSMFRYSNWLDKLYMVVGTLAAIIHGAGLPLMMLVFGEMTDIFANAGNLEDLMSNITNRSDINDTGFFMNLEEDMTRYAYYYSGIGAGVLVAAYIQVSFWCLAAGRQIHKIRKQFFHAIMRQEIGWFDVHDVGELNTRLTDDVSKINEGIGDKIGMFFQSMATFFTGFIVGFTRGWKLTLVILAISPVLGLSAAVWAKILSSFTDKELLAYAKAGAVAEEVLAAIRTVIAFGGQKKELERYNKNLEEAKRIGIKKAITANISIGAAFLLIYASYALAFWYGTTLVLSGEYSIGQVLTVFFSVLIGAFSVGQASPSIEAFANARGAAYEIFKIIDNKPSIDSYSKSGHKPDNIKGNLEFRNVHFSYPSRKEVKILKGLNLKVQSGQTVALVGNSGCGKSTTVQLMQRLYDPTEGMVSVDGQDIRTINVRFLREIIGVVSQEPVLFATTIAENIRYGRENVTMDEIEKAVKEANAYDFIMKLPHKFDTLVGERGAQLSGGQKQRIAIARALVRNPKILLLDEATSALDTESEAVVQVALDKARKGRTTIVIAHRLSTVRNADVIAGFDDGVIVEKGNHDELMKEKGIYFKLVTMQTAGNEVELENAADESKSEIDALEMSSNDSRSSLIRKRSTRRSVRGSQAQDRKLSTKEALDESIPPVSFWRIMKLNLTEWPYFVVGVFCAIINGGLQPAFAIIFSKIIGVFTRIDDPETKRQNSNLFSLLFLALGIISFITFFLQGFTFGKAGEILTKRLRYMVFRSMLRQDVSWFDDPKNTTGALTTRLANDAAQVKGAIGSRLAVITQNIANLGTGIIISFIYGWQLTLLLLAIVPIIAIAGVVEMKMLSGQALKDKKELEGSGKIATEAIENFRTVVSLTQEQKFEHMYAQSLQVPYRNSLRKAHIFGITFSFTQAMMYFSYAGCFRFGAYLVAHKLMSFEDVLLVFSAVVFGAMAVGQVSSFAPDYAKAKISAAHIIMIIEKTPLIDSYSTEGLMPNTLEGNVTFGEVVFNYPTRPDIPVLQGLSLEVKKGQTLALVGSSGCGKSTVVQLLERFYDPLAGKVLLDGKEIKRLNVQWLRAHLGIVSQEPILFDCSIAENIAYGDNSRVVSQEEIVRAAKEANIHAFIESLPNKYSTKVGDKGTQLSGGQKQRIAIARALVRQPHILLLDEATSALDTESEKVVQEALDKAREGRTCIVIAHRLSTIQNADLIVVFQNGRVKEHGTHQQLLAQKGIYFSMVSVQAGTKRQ

For `COc1cccc(CCn2c3c(c4c(OCCCCOc5cccc6c5c5c(n6CCc6cccc(OC)c6)-c6ccccc6C5=O)cccc42)C(=O)c2ccccc2-3)c1`, the Ki in series [1] was 0.029 µM; in series [6] it was 0.017 µM; in series [7] it was 0.113 µM. Further, the IC50 in series [2] amounted to 0.0241 µM. Besides, the GI50 at 72 h in series [3] is 79.6 µM; in series [4], 51.8 µM. Besides, the values for the selectivity ratio in series [5] and in [8] were 2160 and 3300, respectively. In addition, the “inhibition (INH)” value in series [9] and in [10] was “Not Active” in each case.
On to `CC1CC(=O)c2c3c(n(CCc4ccccc4)c2C1)-c1cc(OCCCCCCCCCCCCOc2ccc4c(c2)-c2c(c5c(n2CCc2ccccc2)CC(C)CC5=O)C4=O)ccc1C3=O` (stereo unspecified), for which, in series [2], the IC50 was more than 10 µM.
On to `COc1cccc(CCn2c3c(c4c(OCCCCCCOc5ccc6c(c5)-c5c(c7c(n5CCc5ccccc5)CC(C)CC7=O)C6=O)cccc42)C(=O)c2ccccc2-3)c1` (stereo unspecified), for which the Ki in [11] amounted to 0.192 µM; in series [6], 0.038 µM; in [12], 0.042 µM. Moreover, in [2], the half-inhibitory concentration (IC50) was 0.0326 µM. The GI50 at 72 h in series [3] and in series [4] was more than 100 µM in each case. Moreover, the selectivity ratio in series [5] and in series [8] was more than 3070 each time. Moreover, the “inhibition (INH)” value in series [9] and in [10] was “Not Active” each time.
`CC1CC(=O)c2c3c(n(CCc4ccccc4)c2C1)-c1ccccc1C3=O` (stereo unspecified): the Ki in series [11] worked out at 0.323 µM; in series [12], 0.843 µM. In [2], the IC50 was 0.768 µM.
As for `CC1CC(=O)c2c3c(n(CCc4ccccc4)c2C1)-c1cc(OCCCCCCCCOc2ccc4c(c2)-c2c(c5c(n2CCc2ccccc2)CC(C)CC5=O)C4=O)ccc1C3=O` (stereo unspecified), the IC50 in series [2] is more than 10 µM.
For `COc1cccc(CCn2c3c(c4c(OCCCCOc5ccc6c(c5)-c5c(c7c(n5CCc5ccccc5)CC(C)CC7=O)C6=O)cccc42)C(=O)c2ccccc2-3)c1` (stereo unspecified), the IC50 in [2] came out at 0.133 µM. Besides, the GI50 at 72 h in [3] and in [4] was 295 µM throughout. Besides, the selectivity ratio in series [5] and in [8] was 2230 throughout. In addition, the “inhibition (INH)” value in series [9] and in series [10] was “Not Active” each time.
With `COc1cccc(CCn2c3c(c4c(OCCCCCCCCCCCCOc5cccc6c5c5c(n6CCc6cccc(OC)c6)-c6ccccc6C5=O)cccc42)C(=O)c2ccccc2-3)c1`, in series [2], the IC50 was more than 10 µM.
In the case of `CC1CC(=O)c2c3c(n(CCc4ccccc4)c2C1)-c1cc(OCCCCCCCCCCOc2ccc4c(c2)-c2c(c5c(n2CCc2ccccc2)CC(C)CC5=O)C4=O)ccc1C3=O` (stereo unspecified), the IC50 in [2] was more than 10 µM.
Same read-out and setting: then `COc1cccc(CCn2c3c(c4c(OCCCCCCCCOc5cccc6c5c5c(n6CCc6cccc(OC)c6)-c6ccccc6C5=O)cccc42)C(=O)c2ccccc2-3)c1`, with more than 10 µM.
With `COc1cccc(CCn2c3c(c4c(OCCCCCCCCOc5ccc6c(c5)-c5c(c7c(n5CCc5ccccc5)CC(C)CC7=O)C6=O)cccc42)C(=O)c2ccccc2-3)c1` (stereo unspecified), in series [2], the IC50 was determined as 0.389 µM. For the same compound, the GI50 at 72 h in series [3] and in [4] was more than 20 µM throughout. The selectivity ratio in series [5] and in series [8] was more than 52 in each case. Also, the “inhibition (INH)” value in series [9] and in series [10] was “Not Active” in each case.
With `CC1CC(=O)c2c3c(n(CCc4ccccc4)c2C1)-c1cc(OCCOc2ccc4c(c2)-c2c(c5c(n2CCc2ccccc2)CC(C)CC5=O)C4=O)ccc1C3=O` (stereo unspecified), the IC50 in series [2] was found to be 0.319 µM. Further, the GI50 at 72 h in series [3] and in series [4] was 242 µM in each case. For the same compound, the selectivity ratio in series [5] and in series [8] was 758 in each case. The “inhibition (INH)” value in [9] and in series [10] was “Not Active” in each case.
For the compound `COc1cccc(CCn2c3c(c4c(OCCOc5cccc6c5c5c(n6CCc6cccc(OC)c6)-c6ccccc6C5=O)cccc42)C(=O)c2ccccc2-3)c1`, the IC50 in series [2] is 0.0384 µM. The values for the GI50 at 72 h in series [3] and in [4] were 917 µM and more than 100 µM, respectively. The selectivity ratio in [8] was not below 2630. The “inhibition (INH)” value in [9] and in [10] was “Not Active” each time.
In the case of `COc1cccc(CCn2c3c(c4c(OCCCCCCOc5cccc6c5c5c(n6CCc6cccc(OC)c6)-c6ccccc6C5=O)cccc42)C(=O)c2ccccc2-3)c1`, the IC50 in [2] turned out to be 0.0274 µM. The selectivity ratio in series [5] and in series [8] was not below 70000 each time. For the same compound, the “inhibition (INH)” value in [9] and in series [10] was “Not Active” in each case.
Turning to `CC1CC(=O)c2c3c(n(CCc4ccccc4)c2C1)-c1cc(OCCCCCCOc2ccc4c(c2)-c2c(c5c(n2CCc2ccccc2)CC(C)CC5=O)C4=O)ccc1C3=O` (stereo unspecified), the half-maximal inhibitory concentration (IC50) in series [2] is more than 10 µM.
On to `COc1cccc(CCn2c3c(c4c(OCCCCCCCCCCOc5ccc6c(c5)-c5c(c7c(n5CCc5ccccc5)CC(C)CC7=O)C6=O)cccc42)C(=O)c2ccccc2-3)c1` (stereo unspecified), for which, in series [2], the IC50 is more than 10 µM.
In the case of `COc1cccc(CCn2c3c(c4c(OCCOc5ccc6c(c5)-c5c(c7c(n5CCc5ccccc5)CC(C)CC7=O)C6=O)cccc42)C(=O)c2ccccc2-3)c1` (stereo unspecified), the half-maximal inhibitory concentration (IC50) in series [2] amounted to 0.068 µM. In addition, the GI50 at 72 h in [3] and in series [4] was 221 µM in each case. Further, the selectivity ratio in [5] and in series [8] was 3250 throughout. Further, the “inhibition (INH)” value in series [13] is given as “Active”.
For `COc1cccc(CCn2c3c(c4c(OCCCCCCCCCCOc5cccc6c5c5c(n6CCc6cccc(OC)c6)-c6ccccc6C5=O)cccc42)C(=O)c2ccccc2-3)c1`, the 50% inhibitory concentration (IC50) in series [2] was more than 10 µM.
As for `COc1cccc(CCn2c3c(c4c(OCCCCCCCCCCCCOc5ccc6c(c5)-c5c(c7c(n5CCc5ccccc5)CC(C)CC7=O)C6=O)cccc42)C(=O)c2ccccc2-3)c1` (stereo unspecified), in [2], the IC50 is more than 10 µM.
As to `CC1CC(=O)c2c3c(n(CCc4ccccc4)c2C1)-c1cc(OCCCCOc2ccc4c(c2)-c2c(c5c(n2CCc2ccccc2)CC(C)CC5=O)C4=O)ccc1C3=O` (stereo unspecified), the IC50 in series [2] turned out to be 0.867 µM. Further, the GI50 at 72 h in [3] and in series [4] was 109 µM each time. The selectivity ratio in series [5] and in series [8] was 126 throughout. For the same compound, the “inhibition (INH)” value in series [9] and in series [10] was “Not Active” each time.
Regarding `COc1cccc(CCn2c3c(c4c(O)cccc42)C(=O)c2ccccc2-3)c1`, the Ki in series [11] stood at 0.188 µM; in series [14], 0.25 µM; in [12], 0.294 µM. Moreover, in [2], the IC50 came out at 0.732 µM.
